*1 amine or outer side, *2 acyl side, *3 side chain or, on linkers, in order; H or OH if unused. Where a SMILES comes first, the peptide text is derived from it. Bridges are numbered along the chain shown (N, C = ends). Side-chain parts run from the residue outwards. [ ]: non-standard residue; d: D form. The star is where a group is joined. ξ: configuration not given here. X23 = CN(CCOCCOCC(=O)N(C)CCOCCOCC(=O)*)C(=O)CC[C@H](C(=O)O)N(C)C(=O)CCCCCCCCCCCCCCCCC(=O)O; X16 = CC(C)(S[*:2])[C@H](CC(=O)CCOCCOCC[N+](C)(C)C)C(=O)[*:1]; Me3N+(CH2)2O(CH2)2O(CH2)2CO = C[N+](C)(C)CCOCCOCCC(=O)*; PEG12 = NCCOCCOCCOCCOCCOCCOCCOCCOCCOCCOCCOCCOCCC(=O)O; CH2CH2OCH2CH2OCH2CH2NMe3+ = C[N+](C)(C)CCOCCOCC*; Trp(7-Me) = Cc1cccc2c(C[C@H](N)C(=O)O)c[nH]c12; C20 diacid = O=C(O)CCCCCCCCCCCCCCCCCCC(=O)*; C18 diacid = O=C(O)CCCCCCCCCCCCCCCCC(=O)*; γGlu = O=C(O)[C@H](CCC(=O)[*:2])N[*:1]; 2Nal = N[C@@H](Cc1ccc2ccccc2c1)C(=O)O; AEF = NCCOc1ccc(C[C@H](N)C(=O)O)cc1; X2 = C[N+](C)(C)C[C@@H](CC(=O)O)N*; 2Pal = N[C@@H](Cc1ccccn1)C(=O)O; 3Pal = N[C@@H](Cc1cccnc1)C(=O)O; Lys(Me) = CNCCCC[C@H](N)C(=O)O; NMeK = CN[C@@H](CCCCN)C(=O)O; Pen = CC(C)(S)[C@H](N)C(=O)O; Suc = O=C(CCC(=O)[*:2])[*:1]; Thp = NC1(C(=O)O)CCOCC1; X1 = C[N+](C)(C)CCCCC*; ξN = NC(=O)CC(N)C(=O)O; AEEA = NCCOCCOCC(=O)O; Sar = CNCC(=O)O
How the values were obtained:
[1] = tested on: IL-23-stimulated phosphorylated STAT3 in peripheral blood mononuclear cells (PBMCs); assay: PBMC pSTAT3 Assay; type: cell-based; conditions: PBMCs from healthy donors; 30 min preincubation with peptide; IL-23 5 ng/mL for 30 min; phospho-STAT3 by MSD
Method in brief: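 Healthy-donor PBMCs expanded 4 days on anti-CD3 with 100 ng/mL IL-1β, starved ~4 h in RPMI-0.1% BSA, preincubated 30 min with peptide, then stimulated 30 min at 37 °C with 5 ng/mL IL-23. Lysate pSTAT3 measured by MSD phospho-STAT panel; IC50 derived.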

IL-23R = target: T1, IL-23R (Homo sapiens, UniProt Q5VWK5); assay: IL23R Reporter Assay; type: cell-based; conditions: HEK293 cells containing IL-23R, IL-12Rβ1 and STAT-inducible firefly luciferase reporter; 10 ng/mL IL-23 (EC90); 5 h
T1 construct: HEK293 cells containing IL-23R, IL-12Rβ1 and a firefly luciferase reporter gene driven by a STAT-inducible promoter (Promega); host or cells: HEK293
T1 sequence (Q5VWK5 24-629): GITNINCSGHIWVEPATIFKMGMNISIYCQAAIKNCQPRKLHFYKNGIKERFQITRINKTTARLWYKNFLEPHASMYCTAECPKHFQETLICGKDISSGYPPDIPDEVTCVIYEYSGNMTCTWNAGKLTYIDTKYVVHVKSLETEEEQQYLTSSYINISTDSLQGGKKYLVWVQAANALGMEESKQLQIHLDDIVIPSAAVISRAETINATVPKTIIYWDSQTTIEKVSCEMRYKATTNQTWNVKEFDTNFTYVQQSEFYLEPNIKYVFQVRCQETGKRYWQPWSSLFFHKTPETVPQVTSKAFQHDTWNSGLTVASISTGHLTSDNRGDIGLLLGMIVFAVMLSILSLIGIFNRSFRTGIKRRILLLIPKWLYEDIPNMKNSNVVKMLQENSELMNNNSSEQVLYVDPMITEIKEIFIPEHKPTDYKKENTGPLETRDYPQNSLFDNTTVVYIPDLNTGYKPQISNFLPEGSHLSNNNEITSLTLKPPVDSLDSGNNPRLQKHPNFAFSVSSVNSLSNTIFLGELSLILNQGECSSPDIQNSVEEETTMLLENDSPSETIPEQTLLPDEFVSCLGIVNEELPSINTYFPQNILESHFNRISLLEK
Method in brief: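 HEK293 cells carrying IL-23R, IL-12Rβ1 and a STAT-driven firefly luciferase reporter (4000 cells/well) received compound, then 10 ng/mL IL-23 solution (EC90), and were incubated for 5 h at 37° C. BioGlo luminescence was normalised to IL-23 alone (0%) and 30 μM control inhibitor (100%). IC50 came from a 4-parameter Hill fit.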

SMILES | IC50 [1] [nM] | IC50 (IL-23R) [nM]
CC(=O)NCCCC[C@@H]1NC(=O)[C@H](Cc2c[nH]c3c(C)cccc23)NC(=O)[C@H]([C@@H](C)O)NC(=O)[C@H](CCCCNC(=O)COCCOCCNC(=O)COCCOCCNC(=O)CC[C@H](NC(=O)CCCCCCCCCCCCCCCCC(=O)O)C(=O)O)NC(=O)[C@@H](NC(=O)[C@@H](CCCNC(=N)N)NC(C)=O)C(C)(C)SSC(C)(C)[C@@H](C(=O)N[C@@H](Cc2ccc(OCCN)cc2)C(=O)N[C@@H](Cc2ccc3ccccc3c2)C(=O)NC2(C(=O)N[C@@H](CCCCN(C)C(=O)CCOCCOCC[N+](C)(C)C)C(=O)N[C@@H](CC(N)=O)C(=O)N[C@@H](Cc3ccccn3)C(=O)N(C)CC(N)=O)CCOCC2)NC1=O [compound 74, MeCO-r-Pen(3)-K(PEG2PEG2gEC18OH)-T-7MeW-K(Ac)-Pen(3)-AEF-2Nal-THP-K(NMecPEG3a)-N-3Pya-Sar-CONH2] (Ac-[dR][Pen]K([AEEA-AEEA-γGlu-C18 diacid])T[Trp(7-Me)]K(Ac)[Pen][AEF][2Nal][Thp][Lys(Me)](Me3N+(CH2)2O(CH2)2O(CH2)2CO)N[2Pal][Sar]-NH2; disulfide 2-7) | < 0.5 | < 50
Cc1cccc2c(C[C@@H]3NC(=O)[C@H]([C@@H](C)O)NC(=O)[C@H](CC(N)=O)NC(=O)[C@@H](NC(=O)[C@@H](CCCNC(=N)N)NC(=O)CCC(=O)N[C@H](CC(=O)O)C[N+](C)(C)C)C(C)(C)SSC(C)(C)[C@@H](C(=O)N[C@@H](Cc4ccc(OCCN)cc4)C(=O)N[C@@H](Cc4ccc5ccccc5c4)C(=O)NC4(C(=O)N[C@@H](CCC(=O)O)C(=O)N[C@@H](CC(N)=O)C(=O)N[C@@H](Cc5cccnc5)C(=O)N(C)CC(N)=O)CCOCC4)NC(=O)[C@H](CCCCNC(=O)COCCOCCNC(=O)COCCOCCNC(=O)CC[C@H](NC(=O)CCCCCCCCCCCCCCCCC(=O)O)C(=O)O)NC3=O)c[nH]c12 [compound 19, MeCO-r-Pen(3)-N-T-7MeW-K(PEG2PEG2gEC18OH)-Pen(3)-AEF-2Nal-THP-E-N-3Pya-NMeK(d)-CONH2] ({X2-Suc}-[dR][Pen]NT[Trp(7-Me)]K([AEEA-AEEA-γGlu-C18 diacid])[Pen][AEF][2Nal][Thp]EN[3Pal][Sar]-NH2; disulfide 2-7) | < 0.5 | 50 to 500
CC(=O)NCCCC[C@@H]1NC(=O)[C@H](CC2CNc3c(C)cccc32)NC(=O)[C@H]([C@@H](C)O)NC(=O)[C@H](CC(N)=O)NC(=O)[C@@H](NC(C)=O)C(C)(C)SSC(C)(C)[C@@H](C(=O)N[C@@H](Cc2ccc(OCCN)cc2)C(=O)N[C@@H](Cc2ccc3ccccc3c2)C(=O)NC2(C(=O)N[C@@H](CCCCNC(=O)CCOCCOCCOCCOCCOCCOCCOCCOCCOCCOCCOCCOCCNCCC[C@H](NC(=O)CCCCCCCCCCCCCCCCC(=O)O)C(=O)O)C(=O)N[C@@H](C)C(=O)N[C@@H](Cc3ccccc3)C(=O)N(C)CC(N)=O)CCOCC2)NC1=O (stereo partly drawn) [compound 100, MeCO-Pen(3)-N-T-7MeW-K(Ac)-Pen(3)-AEF-2Nal-THP-K(PEG12gEC18OH)-N-3Pya-Sar-CONH2] | < 0.5 | < 50
CC(=O)N(C)CCCC[C@@H]1NC(=O)[C@H](Cc2c[nH]c3c(C)cccc23)NC(=O)[C@H]([C@@H](C)O)NC(=O)[C@H](CC(=O)N(C)C)NC(=O)[C@@H](CC(=O)CCOCCOCC[N+](C)(C)C)C(C)(C)SSC(C)(C)[C@@H](C(=O)N[C@@H](Cc2ccc(OCCOCCOCC[N+](C)(C)C)cc2)C(=O)N[C@@H](Cc2ccc3ccccc3c2)C(=O)NC2(C(=O)N[C@@H](CCCCN(C)C(C)=O)C(=O)NC(CC(N)=O)C(=O)N[C@@H](Cc3cccnc3)C(=O)N(C)[C@@H](CCCCNC(=O)COCCOCCNC(=O)COCCOCCNC(=O)CC[C@H](NC(=O)CCCCCCCCCCCCCCCCC(=O)O)C(=O)O)C(N)=O)CCOCC2)NC1=O (stereo partly shown) [compound 113, cPEG3aCO-Pen(3)-N(N(Me)2)-T-7MeW-K(NMeAc)-Pen(3)-APEG3F-2Nal-THP-K(NMeAc)-N-3Pya-NMeK(PEG2PEG2gEC18OH)-CONH2] (D(NMe2)T[Trp(7-Me)][Lys(Me)](Ac)[Pen]Y(CH2CH2OCH2CH2OCH2CH2NMe3+)[2Nal][Thp][Lys(Me)](Ac)[ξN][3Pal][NMeK]([AEEA-AEEA-γGlu-C18 diacid])-NH2; linker N-5 via X16) | < 0.5 | < 50
CC(=O)N(C)CCCC[C@@H]1NC(=O)[C@H](Cc2c[nH]c3c(C)cccc23)NC(=O)[C@H]([C@@H](C)O)NC(=O)[C@H](CC(=O)N(C)C)NC(=O)[C@@H](NC(=O)CCOCCOCCOCCOCCOCCOCCOCCOCCOCCOCCOCCOCCNC(=O)CC[C@H](NC(=O)CCCCCCCCCCCCCCCCC(=O)O)C(=O)O)C(C)(C)SSC(C)(C)[C@@H](C(=O)N[C@@H](Cc2ccc(OCCOCCOCC[N+](C)(C)C)cc2)C(=O)N[C@@H](Cc2ccc3ccccc3c2)C(=O)NC2(C(=O)N[C@@H](CCCCN(C)C(C)=O)C(=O)N[C@@H](CC(N)=O)C(=O)N[C@@H](Cc3cccnc3)C(=O)N(C)CC(=O)N(C)C)CCOCC2)NC1=O [compound 108, HOC18gEPEG12CO-Pen(3)-N(N(Me)2)-T-7MeW-K(NMeAc)-Pen(3)-APEG3F-2Nal-THP-K(NMeAc)-N-3Pya-Sar-CON(Me)2] ({C18 diacid-γGlu-PEG12}-[Pen]D(NMe2)T[Trp(7-Me)][Lys(Me)](Ac)[Pen]Y(CH2CH2OCH2CH2OCH2CH2NMe3+)[2Nal][Thp][Lys(Me)](Ac)N[3Pal][Sar]-NMe2; disulfide 1-6) | < 0.5 | < 50
CC(=O)NCCCC[C@@H]1NC(=O)[C@H](Cc2c[nH]c3c(C)cccc23)NC(=O)[C@H]([C@@H](C)O)NC(=O)[C@H](CC(N)=O)NC(=O)[C@@H](NC(=O)[C@@H](CCCNC(=N)N)NC(C)=O)C(C)(C)SSC(C)(C)[C@@H](C(=O)N[C@@H](Cc2ccc(OCCN)cc2)C(=O)N[C@@H](Cc2ccc3ccccc3c2)C(=O)NC2(C(=O)N[C@@H](CCC(=O)O)C(=O)N[C@@H](CC(N)=O)C(=O)N[C@@H](Cc3cccnc3)C(=O)N(C)[C@@H](CCCCNC(=O)COCCOCCN(C)C(=O)COCCOCCN(C)C(=O)CC[C@H](C(=O)O)N(C)C(=O)CCCCCCCCCCCCCCCCC(=O)O)C(N)=O)CCOCC2)NC1=O [compound 80, MeCO-r-Pen(3)-N-T-7MeW-K(Ac)-Pen(3)-AEF-2Nal-THP-E-N-3Pya-NMeK(PEG2NMePEG2NMegENMeC18OH)-CONH2] (Ac-[dR][Pen]NT[Trp(7-Me)]K(Ac)[Pen][AEF][2Nal][Thp]EN[3Pal][NMeK](X23)-NH2; disulfide 2-7) | < 0.5 | 50 to 500
CC(=O)N(C)CCCC[C@@H]1NC(=O)[C@H](Cc2c[nH]c3c(C)cccc23)NC(=O)[C@H]([C@@H](C)O)NC(=O)[C@H](CC(=O)N(C)C)NC(=O)[C@@H](NC(=O)CCOCCOCCOCCOCCOCCOCCOCCOCCOCCOCCOCCOCCNC(=O)CC[C@H](NC(=O)CCCCCCCCCCCCCCCCC(=O)O)C(=O)O)C(C)(C)SSC(C)(C)[C@@H](C(=O)N[C@@H](Cc2ccc(OCCCCC[N+](C)(C)C)cc2)C(=O)N[C@@H](Cc2ccc3ccccc3c2)C(=O)NC2(C(=O)N[C@@H](CCCCN(C)C(C)=O)C(=O)N[C@@H](CC(N)=O)C(=O)N[C@@H](Cc3cccnc3)C(=O)N(C)CC(=O)N(C)C)CCOCC2)NC1=O [compound 95, HOC18gEPEG12CO-Pen(3)-N(N(Me)2)-T-7MeW-K(NMeAc)-Pen(3)-TMAPF-2Nal-THP-K(NMeAc)-N-3Pya-Sar-CON(Me)2] ({C18 diacid-γGlu-PEG12}-[Pen]D(NMe2)T[Trp(7-Me)][Lys(Me)](Ac)[Pen]Y(X1)[2Nal][Thp][Lys(Me)](Ac)N[3Pal][Sar]-NMe2; disulfide 1-6) | < 0.5 | < 50
CC(=O)N(C)CCCC[C@@H]1NC(=O)[C@H](Cc2c[nH]c3c(C)cccc23)NC(=O)[C@H]([C@@H](C)O)NC(=O)[C@H](CC(=O)N(C)C)NC(=O)[C@@H](NC(=O)COCCOCCNC(=O)COCCOCCNC(=O)CC[C@H](NC(=O)CCCCCCCCCCCCCCCCCCC(=O)O)C(=O)O)C(C)(C)SSC(C)(C)[C@@H](C(=O)N[C@@H](Cc2ccc(OCCOCCOCC[N+](C)(C)C)cc2)C(=O)N[C@@H](Cc2ccc3ccccc3c2)C(=O)NC2(C(=O)N[C@@H](CCCCN(C)C(C)=O)C(=O)N[C@@H](CC(N)=O)C(=O)N[C@@H](Cc3cccnc3)C(=O)N(C)CC(=O)N(C)C)CCOCC2)NC1=O [compound 110, HOC20gEPEG2PEG2CO-Pen(3)-N(N(Me)2)-T-7MeW-K(NMeAc)-Pen(3)-APEG3F-2Nal-THP-K(NMeAc)-N-3Pya-Sar-CON(Me)2] ({C20 diacid-γGlu-AEEA-AEEA}-[Pen]D(NMe2)T[Trp(7-Me)][Lys(Me)](Ac)[Pen]Y(CH2CH2OCH2CH2OCH2CH2NMe3+)[2Nal][Thp][Lys(Me)](Ac)N[3Pal][Sar]-NMe2; disulfide 1-6) | < 0.5 | 50 to 500

— patent US20260250320A1, “LIPIDATED PEPTIDE INHIBITORS OF INTERLEUKIN-23 RECEPTOR” (Janssen Pharmaceutica NV, priority 2023, published 2026)
